According to patent publication US5089516A, “1-phenyl-3,5-pyrazolidinedione hydroxystyrene compounds which have tyrosine kinase inhibiting activity” (Kanegafuchi Kagaku Kogyo Kabushiki Kaisha, priority 1987, dated 1992):
Blank lines part the entries; values can stand above or below the molecule they belong to.

Legend:
[1] = target: T1, epidermal growth factor receptor-tyrosine kinase complex (Homo sapiens, UniProt P00533); assay: Tyrosine kinase inhibiting activity (A-431 membrane preparation, EGF-stimulated); type: biochemical; details: read-out: Tyrosine kinase inhibition rate; for inhibition at 1 µM: 1 μM in the reaction mixture; for inhibition at 10 µM: 10 μM in the reaction mixture
T1 construct: The membrane preparation was employed in the following measurement without solubilization; endogenous in cells; host or cells: A-431 (ATCC CRL1555), membrane preparation, not solubilized
T1 sequence (P00533 25-1210, one chain of several): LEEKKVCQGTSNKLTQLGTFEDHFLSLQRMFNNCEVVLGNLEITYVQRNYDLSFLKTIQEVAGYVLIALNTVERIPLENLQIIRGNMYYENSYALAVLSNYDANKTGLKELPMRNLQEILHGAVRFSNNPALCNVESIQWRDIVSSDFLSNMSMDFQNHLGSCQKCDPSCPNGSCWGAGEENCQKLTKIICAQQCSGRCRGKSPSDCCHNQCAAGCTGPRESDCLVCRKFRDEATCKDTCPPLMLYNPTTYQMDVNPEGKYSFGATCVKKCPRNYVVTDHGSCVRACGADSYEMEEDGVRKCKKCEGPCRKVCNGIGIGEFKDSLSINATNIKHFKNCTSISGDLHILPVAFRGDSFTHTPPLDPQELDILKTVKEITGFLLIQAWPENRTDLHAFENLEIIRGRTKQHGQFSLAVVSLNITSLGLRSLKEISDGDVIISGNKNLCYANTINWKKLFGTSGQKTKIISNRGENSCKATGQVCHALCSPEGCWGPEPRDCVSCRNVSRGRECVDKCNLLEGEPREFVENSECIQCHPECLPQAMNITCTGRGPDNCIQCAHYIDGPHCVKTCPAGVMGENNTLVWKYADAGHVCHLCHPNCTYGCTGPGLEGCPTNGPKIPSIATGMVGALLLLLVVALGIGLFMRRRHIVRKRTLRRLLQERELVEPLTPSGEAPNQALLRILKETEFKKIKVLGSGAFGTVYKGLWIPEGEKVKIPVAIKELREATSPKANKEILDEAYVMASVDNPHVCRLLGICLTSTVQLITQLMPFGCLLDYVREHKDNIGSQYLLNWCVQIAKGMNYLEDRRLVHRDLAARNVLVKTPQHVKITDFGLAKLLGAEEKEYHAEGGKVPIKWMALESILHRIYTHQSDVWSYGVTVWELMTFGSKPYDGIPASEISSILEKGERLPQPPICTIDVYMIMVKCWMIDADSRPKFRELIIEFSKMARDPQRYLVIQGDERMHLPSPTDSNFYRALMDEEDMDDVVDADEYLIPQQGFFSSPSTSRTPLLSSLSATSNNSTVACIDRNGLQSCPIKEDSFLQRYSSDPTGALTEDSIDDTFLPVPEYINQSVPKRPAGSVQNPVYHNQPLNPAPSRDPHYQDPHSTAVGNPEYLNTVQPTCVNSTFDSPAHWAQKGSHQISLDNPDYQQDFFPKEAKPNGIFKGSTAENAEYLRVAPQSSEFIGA
In short: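 Unsolubilized A-431 membranes (10 μg protein) in 20 mM HEPES pH 7.4 with 1 mM MnCl2 were preincubated with compound (DMSO) 5 min at 0° C, stimulated with 100 ng EGF 15 min, then phosphorylated with [γ-32P]ATP 15 min at 0° C. TCA-precipitated radioactivity on filter counted; inhibition % calculated against no-EGF and no-compound controls.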

5-lipoxygenase = target: T2, 5-lipoxygenase (Cavia porcellus, UniProt A0A286X958); assay: 5-Lipoxygenase inhibiting activity (5-HETE formation, cytosol of peritoneal exudate cells); type: biochemical, Hartley guinea pigs; details: read-out: Inhibition rate (5-lipoxygenase); for inhibition at 10 µM: 10 μM in the reaction mixture; for inhibition at 1 µM: 1 μM in the reaction mixture
T2 construct: The cytosol fraction was used as an enzyme solution; from tissue; host or cells: peritoneal exudate cells of casein-injected Hartley guinea pigs, 105,000×g cytosol
T2 sequence (A0A286X958 1-674): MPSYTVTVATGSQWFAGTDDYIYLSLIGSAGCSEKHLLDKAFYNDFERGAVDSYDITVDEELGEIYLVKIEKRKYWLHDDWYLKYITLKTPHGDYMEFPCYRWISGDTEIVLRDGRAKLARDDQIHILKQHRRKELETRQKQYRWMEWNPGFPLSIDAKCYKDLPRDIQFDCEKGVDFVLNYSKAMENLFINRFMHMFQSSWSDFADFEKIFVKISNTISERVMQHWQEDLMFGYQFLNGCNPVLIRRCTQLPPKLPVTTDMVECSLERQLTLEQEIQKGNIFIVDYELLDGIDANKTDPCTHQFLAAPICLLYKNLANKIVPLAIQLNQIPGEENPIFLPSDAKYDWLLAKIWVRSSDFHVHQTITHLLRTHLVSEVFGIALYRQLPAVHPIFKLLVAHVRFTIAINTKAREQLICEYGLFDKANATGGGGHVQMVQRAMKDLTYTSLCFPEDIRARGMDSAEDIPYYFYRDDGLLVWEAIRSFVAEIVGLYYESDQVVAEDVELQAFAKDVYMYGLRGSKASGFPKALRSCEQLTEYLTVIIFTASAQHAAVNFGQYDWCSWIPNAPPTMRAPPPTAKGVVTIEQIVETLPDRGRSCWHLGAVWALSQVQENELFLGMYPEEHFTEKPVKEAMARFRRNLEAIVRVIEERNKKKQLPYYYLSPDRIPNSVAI
In short: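 Enzyme source: cytosol (105,000×g supernatant) of casein-elicited guinea pig peritoneal exudate cells, preincubated 5 min at 30 °C with compound (2% ethanol final), 1 mM CaCl2, 1 mM GSH, 2 mM ATP, then 5 min with 20 μM [1-14C]arachidonic acid. 5-HETE separated by TLC, counted by scintillation; % inhibition versus ethanol control.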

SMILES: O=C1NC(=S)SC1=Cc1cc(Cc2ccccc2)c(O)c(Cc2ccccc2)c1 [Compound 2]
inhibition at 1 µM [1]: 20%
inhibition at 10 µM (5-lipoxygenase): 78%

SMILES: O=C1NC(=S)SC1=Cc1cc(O)c(O)c(CSc2ccccc2)c1 [Compound 7]
inhibition at 10 µM [1]: 59%
inhibition at 1 µM (5-lipoxygenase): 88%

SMILES: O=C1NC(=S)SC1=Cc1cc(CSc2ccccc2)c(O)c(OCc2ccccc2)c1 [Compound 8]
inhibition at 10 µM [1]: 69%
inhibition at 1 µM (5-lipoxygenase): 61%

SMILES: CCCCOc1cc(C=C2SC(=S)NC2=O)cc(CSc2ccccc2)c1O [Compound 9]
inhibition at 10 µM [1]: 50%
inhibition at 1 µM (5-lipoxygenase): 91%

SMILES: CCCCOc1cc(C=C2SC(=S)NC2=O)cc(Cc2ccccc2)c1O [Compound 10]
inhibition at 1 µM [1]: 40%
inhibition at 1 µM (5-lipoxygenase): 23%

SMILES: O=C1Nc2ccccc2C1=Cc1cc(O)c(O)c(CSc2ccccc2)c1 [Compound 11]
inhibition at 10 µM [1]: 52%
inhibition at 1 µM (5-lipoxygenase): 87%

SMILES: O=C1NN(c2ccccc2)C(=O)C1=Cc1cc(Cc2ccccc2)c(O)c(Cc2ccccc2)c1 [Compound 20]
inhibition at 1 µM [1]: 46%
inhibition at 10 µM (5-lipoxygenase): 83%

SMILES: O=C1NN(c2ccccc2)C(=O)C1=Cc1cc(O)c(O)c(Cc2ccccc2)c1 [Compound 24]
inhibition at 1 µM [1]: 37%
inhibition at 1 µM (5-lipoxygenase): 48%

SMILES: O=C1N=C(NCc2ccccc2)SC1=Cc1cc(Cc2ccccc2)c(O)c(Cc2ccccc2)c1 [Compound 26]
inhibition at 10 µM [1]: 62%
inhibition at 1 µM (5-lipoxygenase): 84%

SMILES: O=C1N=C(NCc2cccs2)SC1=Cc1cc(CSc2ccccc2)c(O)c(OCc2ccccc2)c1 [Compound 31]
inhibition at 10 µM [1]: 41%
inhibition at 1 µM (5-lipoxygenase): 49%

inhibition at 10 µM [1]: 69%
inhibition at 10 µM (5-lipoxygenase): 82%
SMILES: CC(C)c1cc(C=C2SC(NCc3ccccc3)=NC2=O)cc(C(C)C)c1O [Compound 33]

SMILES: CC(C)c1cc(C=C2SC(NCc3ccc(F)cc3)=NC2=O)cc(C(C)C)c1O [Compound 35]
inhibition at 1 µM [1]: 70%
inhibition at 10 µM (5-lipoxygenase): 89%

SMILES: CC(C)c1cc(C=C2SC(NCc3ccc(Cl)c(Cl)c3)=NC2=O)cc(C(C)C)c1O [Compound 37]
inhibition at 10 µM [1]: 83%
inhibition at 10 µM (5-lipoxygenase): 89%

SMILES: Cc1ccc(CNC2=NC(=O)C(=Cc3cc(C(C)C)c(O)c(C(C)C)c3)S2)cc1 [Compound 39]
inhibition at 10 µM [1]: 43%
inhibition at 10 µM (5-lipoxygenase): 87%

SMILES: CC(C)c1cc(C=C2SC(NCc3ccc(S(N)(=O)=O)cc3)=NC2=O)cc(C(C)C)c1O [Compound 41]
inhibition at 10 µM [1]: 70%
inhibition at 10 µM (5-lipoxygenase): 89%

SMILES: CC(C)c1cc(C=C2SC(NCc3ccc(N)cc3)=NC2=O)cc(C(C)C)c1O [Compound 42]
inhibition at 1 µM [1]: 85%
inhibition at 10 µM (5-lipoxygenase): 88%
